Source: patent US20250195521A1 (Revolution Medicines, Inc., priority 2020, published 2025)
Like-named read-outs stand apart in the source and are kept apart here.

What was measured:
[1] = tested on: NCI-H358 cells (K-Ras G12C); test: CellTiter-Glo cell viability, NCI-H358; assay type: cell-based, human; conditions: K-Ras G12C, 5-day treatment, read-out: H358 Cell Viability IC50
Outline: (§1)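 Five-day treatment of K-Ras mutant cells with directly dispensed compound; ATP-based luminescence endpoint. Percent of DMSO signal fit to four-parameter logistic curve.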

[2] = molecular target: K-Ras G12C(GMP-PNP) binding to BRAF RBD (Homo sapiens (Human), UniProt P01116+P62937, G12C); test: Disruption of BRAF RBD interaction with K-Ras (FRET / MOA assay), K-Ras G12C; assay type: biochemical; conditions: read-out: KRAS G12C FRET IC50
Outline: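 Cpd 10-pt 3-fold dilution, top 30 μM final; Ras/CypA/BRAF RBD mix 3 h, 25° C. Add anti-His Eu-W1024 10 nM + anti-GST APC 50 nM final, 1.5 h. Readout TR-FRET ratio decrease vs DMSO → IC50.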

KRAS G13D = KRAS G13D (Homo sapiens (Human), UniProt P01116+P62937, G13D); test: Ras-Raf disruption/FRET/MOA assay (BRAF RBD, Cyclophilin A); assay type: biochemical; conditions: read-out: KRAS G13D FRET data IC50
Outline: (§2)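 Ras-GMPPNP (12.5 nM), BRAF RBD (50 nM) and 25 μM Cyclophilin A were incubated with compound for 3 h at 25° C, then detected 1.5 h with anti-His Eu and anti-GST APC; IC50 values follow from the reduced TR-FRET ratio.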

KRAS WT = KRAS WT (Homo sapiens (Human), UniProt P01116+P62937); test: as above; assay type: biochemical; conditions: read-out: KRAS WT FRET data IC50
Outline: as §2

KRAS G12D = KRAS G12D (Homo sapiens (Human), UniProt P01116+P62937, G12D); test: as above; assay type: biochemical; conditions: read-out: KRAS G12D FRET IC50
Outline: as §2

KRAS G12V = KRAS G12V (Homo sapiens (Human), UniProt P01116+P62937, G12V); test: as above; assay type: biochemical; conditions: read-out: KRAS G12V FRET IC50
Outline: as §2

KRAS G13C = KRAS G13C (Homo sapiens (Human), UniProt P01116+P62937, G13C); test: as above; assay type: biochemical; conditions: read-out: KRAS G13C FRET IC50
Outline: as §2

KRAS G12C = KRAS G12C (Homo sapiens (Human), UniProt P01116+P62937, G12C); test: as above; assay type: biochemical; conditions: read-out: KRAS G12C FRET IC50
Outline: as §2

KRAS G12S = KRAS G12S (Homo sapiens (Human), UniProt P01116+P62937, G12S); test: as above; assay type: biochemical; conditions: read-out: KRAS G12S FRET IC50
Outline: as §2

NRAS G12C = NRAS G12C (Homo sapiens (Human), UniProt P01111+P62937, G12C); test: as above; assay type: biochemical; conditions: read-out: NRAS G12C FRET data IC50
Sequence of NRAS G12C (P01111 whole entry G12C): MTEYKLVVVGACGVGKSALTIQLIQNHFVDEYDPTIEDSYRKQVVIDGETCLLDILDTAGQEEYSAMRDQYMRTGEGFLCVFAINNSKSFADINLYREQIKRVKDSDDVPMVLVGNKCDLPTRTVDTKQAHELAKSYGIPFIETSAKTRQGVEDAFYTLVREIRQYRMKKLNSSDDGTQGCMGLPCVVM
Sequence of NRAS G12C (P62937 whole entry): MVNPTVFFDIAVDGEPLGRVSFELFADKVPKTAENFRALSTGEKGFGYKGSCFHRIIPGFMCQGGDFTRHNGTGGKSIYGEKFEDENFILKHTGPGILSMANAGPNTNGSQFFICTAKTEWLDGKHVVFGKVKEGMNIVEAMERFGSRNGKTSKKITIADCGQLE
Outline: (§3)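 TR-FRET readout: anti-His Eu-W1024 (10 nM) and anti-GST allophycocyanin (50 nM) added after 3 h, 25° C compound incubation, then 1.5 h more. Decrease in FRET ratio versus DMSO wells marks Ras:RAF disruption; IC50 reported.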

[3] = tested on: Capan-1 cells (K-Ras G12V); test: CellTiter-Glo cell viability, Capan-1; assay type: cell-based, human; conditions: K-Ras G12V, 5-day treatment, read-out: Capan-1 Cell Viability IC50
Outline: as §1

NCI-H358 (K-Ras G12C) = test: CellTiter-Glo cell viability assay, NCI-H358; assay type: cell-based, human; conditions: 5-day treatment, read-out: H358 Cell Viability assay data (K-Ras G12C, IC50)
Outline: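 Five-day compound treatment of NCI-H358 cells, then CellTiter-Glo luminescence, percent of DMSO, four-parameter logistic fit.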

KRAS Q61H = KRAS Q61H (Homo sapiens (Human), UniProt P01116+P62937, Q61H); test: Ras-Raf disruption/FRET/MOA assay (BRAF RBD, Cyclophilin A); assay type: biochemical
Outline: as §2

[4] = tested on: K-Ras G12C (NCI-H358 cells); test: Potency assay: pERK in NCI-H358 cells; assay type: cell-based, human; conditions: NCI-H358 cells, 4 hours, read-out: pERK EC50 (H358 KRAS G12C)
Outline: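 Cells plated the day before were exposed for 4 h at 37° C, 5% CO2 to a 10-point, 3-fold DMSO dilution series (10 mM top stock), in duplicate. Phospho-ERK was read by AlphaLISA SureFire Ultra or by In-Cell Western with DRAQ5 DNA stain, and IC50 came from a 4-parameter sigmoidal fit.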

NRAS WT = NRAS WT (Homo sapiens (Human), UniProt P01111+P62937); test: Ras-Raf disruption/FRET/MOA assay (BRAF RBD, Cyclophilin A); assay type: biochemical
Sequence of NRAS WT (P01111 whole entry): as the sequence (P01111 whole entry G12C) above, with C12G counted along it
Sequence of NRAS WT (P62937 whole entry): as the sequence (P62937 whole entry) above
Outline: as §3

Compound | IC50 ([1]; Homo sapiens, NCI-H358, 120 h) [nM] | IC50 [2] [nM] | IC50 (KRAS G13D) [nM] | IC50 (KRAS WT) [nM] | IC50 (KRAS G12D) [nM] | IC50 (KRAS G12V) [nM] | IC50 (KRAS G13C) [nM] | IC50 (KRAS G12C) [nM] | IC50 (KRAS G12S) [nM] | IC50 (NRAS G12C) [nM] | IC50 ([3]; Homo sapiens, CAPAN-1, 120 h) [nM] | IC50 (NCI-H358 (K-Ras G12C); Homo sapiens, NCI-H358, 120 h) [nM] | IC50 (KRAS Q61H) [nM] | EC50 ([4]; Homo sapiens) [nM] | IC50 (NRAS WT) [nM] | IC50 [1] [nM] | IC50 [3] [nM] | IC50 (NCI-H358 (K-Ras G12C)) [nM] | EC50 [4] [nM]
CCn1c(-c2cccnc2[C@H](C)OC)c2c3cc(ccc31)-c1cc(O)cc(c1)C[C@H](NC(=O)[C@H](C(C)C)N(C)C(=O)[C@@H]1[C@@H]3CNC[C@@H]31)C(=O)N1CCC[C@H](N1)C(=O)OCC(C)(C)C2 [Compound A164] | 10 to 100 | 10 to 100 | 10 to 100 | 10 to 100 | 10 to 100 | 10 to 100 | 10 to 100 | 10 to 100 | 10 to 100 | 10 to 100 | 100 to 1000 | 100 to 1000 |  |  |  |  |  |  | 
CCn1c(-c2cccnc2[C@H](C)OC)c2c3cc(ccc31)-c1cc(O)cc(c1)C[C@H](NC(=O)[C@H](C(C)C)N(C)C(=O)[C@H]1CN[C@@H]3CCO[C@H]13)C(=O)N1CCC[C@H](N1)C(=O)OCC(C)(C)C2 [Compound A231] | 100 to 1000 | > 10000 | 10 to 100 | 10 to 100 | 10 to 100 | 100 to 1000 | 10 to 100 | 10 to 100 | 100 to 1000 | 10 to 100 | 1000 to 10000 | > 10000 |  |  |  |  |  |  | 
CCn1c(-c2cccnc2[C@H](C)OC)c2c3cc(ccc31)-c1csc(n1)C[C@H](NC(=O)[C@H](C(C)C)N(C)C(=O)N1CC([C@@H](C)OC)C1)C(=O)N1CCC[C@H](N1)C(=O)OCC(C)(C)C2 [Compound A278] |  |  | 100 to 1000 | 10 to 100 | 100 to 1000 | 10 to 100 | 100 to 1000 | 10 to 100 | 100 to 1000 | 10 to 100 | 10 to 100 |  | 10 to 100 |  |  |  |  |  | 
CCn1c(-c2cccnc2[C@H](C)OC)c2c3cc(ccc31)-c1csc(n1)C[C@H](NC(=O)[C@H](C(C)C)N(C)C(=O)N1C[C@@H]3C[C@H]1CN3C)C(=O)N1CCC[C@H](N1)C(=O)OCC(C)(C)C2 [Compound A314] | 100 to 1000 | 100 to 1000 | 100 to 1000 | 100 to 1000 | 100 to 1000 | 100 to 1000 | 100 to 1000 | 100 to 1000 | 100 to 1000 | 100 to 1000 | 100 to 1000 | 100 to 1000 |  |  |  |  |  |  | 
CCn1c(-c2cccnc2[C@H](C)OC)c2c3cc(ccc31)-c1cc(O)cc(c1)C[C@H](NC(=O)[C@H](C(C)C)N(C)C(=O)N1CC(OC)C1)C(=O)N1CCC[C@H](N1)C(=O)OCC(C)(C)C2 [Compound A364] | 10 to 100 | 100 to 1000 | 100 to 1000 | 100 to 1000 | 100 to 1000 | 100 to 1000 | 10 to 100 | 10 to 100 | 100 to 1000 | 10 to 100 | 10 to 100 | 100 to 1000 |  |  |  |  |  |  | 
CCn1c(-c2cccnc2[C@H](C)OC)c2c3cc(ccc31)-c1cc(O)cc(c1)C[C@H](NC(=O)[C@H](C(C)C)N(C)C(=O)[C@@H]1OCC[C@@H]1c1ccccc1)C(=O)N1CCC[C@H](N1)C(=O)OCC(C)(C)C2 [Compound A415] | 10 to 100 |  | 10 to 100 | 10 to 100 | 10 to 100 | 10 to 100 | 10 to 100 | 10 to 100 | 10 to 100 | 10 to 100 | 10 to 100 |  |  | < 5000 | 10 to 100 |  |  |  | 
CCn1c(-c2cccnc2[C@H](C)OC)c2c3cc(ccc31)-c1cc(O)cc(c1)C[C@H](NC(=O)[C@H](C(C)C)N(C)C(=O)[C@H]1OCC[C@H]1N)C(=O)N1CCC[C@H](N1)C(=O)OCC(C)(C)C2 [Compound A420] | 100 to 1000 | 100 to 1000 | 100 to 1000 | 100 to 1000 | 100 to 1000 | 100 to 1000 | 10 to 100 | 10 to 100 | 100 to 1000 | 100 to 1000 | 100 to 1000 | 10 to 100 |  |  |  |  |  |  | 
CCn1c(-c2cc(N3CCN(C)CC3)cnc2[C@H](C)OC)c2c3cc(ccc31)-c1csc(n1)C[C@H](NC(=O)[C@H](C(C)C)N(C)C(=O)[C@@H]1OCC[C@@H]1c1ccncc1)C(=O)N1CCC[C@H](N1)C(=O)OCC(C)(C)C2 [Compound A450] |  |  | 100 to 1000 | 100 to 1000 | 100 to 1000 | 100 to 1000 | 100 to 1000 | 10 to 100 | 100 to 1000 | 10 to 100 |  |  | 10 to 100 |  | 10 to 100 |  |  |  | 
CCn1c(-c2cc(N3CCN(C)CC3)cnc2[C@H](C)OC)c2c3cc(ccc31)-c1csc(n1)C[C@H](NC(=O)[C@H](C(C)C)N(C)C(=O)N1CC(C3COC3)C1)C(=O)N1CCC[C@H](N1)C(=O)OCC(C)(C)C2 [Compound A465] |  |  | 100 to 1000 | 10 to 100 | 100 to 1000 | 10 to 100 | 10 to 100 | 10 to 100 | 10 to 100 | 10 to 100 |  |  | 10 to 100 |  | 10 to 100 |  |  |  | 
CCO[C@@H]1c2nc(cs2)-c2ccc3c(c2)c(c(-c2cccnc2[C@H](C)OC)n3CC)CC(C)(C)COC(=O)[C@@H]2CCCN(N2)C(=O)[C@H]1NC(=O)[C@H]1[C@H](C)[C@@H]1c1cn(C)cn1 [Compound A507, (1R,2S,3R)—N-((6^3S,3S,4S,Z)-3-ethoxy-1^1-ethyl-1^2-(2-((S)-1-methoxyethyl)pyridin-3-yl)-10, 10-dimethyl-5,7-dioxo-6^1,6^2,6^3,6^4,6^5,6^6-hexahydro-1^1H-8-oxa-2 (4,2)-thiazola-1 (5,3)-indola-6 (1,3)-pyridazinacycloundecaphane-4-yl)-2-methyl-3-(1-methyl-1H-imidazol-4-yl) cyclopropane-1-carboxamide] |  | 100 to 1000 |  |  | 10 to 100 | 10 to 100 | 10 to 100 | 10 to 100 | 10 to 100 |  |  |  | 10 to 100 |  |  | 10 to 100 | 100 to 1000 | 100 to 1000 | 
(2S)—N-[(8S,14S)-22-ethyl-4-hydroxy-18, 18-dimethyl-21-[6-(4-methylpiperazin-1-yl) pyridin-3-yl]-9,15-dioxo-16-oxa-10,22,28-triazapentacyclo [18.5.2.1^2,6.1^10,14.0^23,27]nonacosa-1 (26), 2,4,6 (29), 20,23 (27),24-heptaen-8-yl]-3-methyl-2-{N-methyl-1-[(3S)-1-(prop-2-enoyl) pyrrolidin-3-yl]formamido}butanamide [Compound A89] |  |  |  |  | 100 to 1000 | 100 to 1000 | 10 to 100 | 100 to 1000 | 100 to 1000 |  |  |  | 10 to 100 |  |  |  | 1000 to 10000 | 10 to 100 | < 5000
